Measurements reported in paper PMC8752738, “A propolis-derived small molecule ameliorates metabolic syndrome in obese mice by targeting the CREB/CRTC2 transcriptional complex” (Nature Communications, 2022).

How the values were obtained:
CREB-CRTC2 interaction = target: T1, CREB-CRTC2 interaction (Homo sapiens, UniProt P16220); assay: CREB–CRTC2 mammalian two-hybrid assay (GAL4-Luc reporter); type: cell-based
T1 construct: expressed in transfected cells; host or cells: HEK293T

HIS-CREB protein = target: T2, HIS-CREB protein (Homo sapiens, UniProt P16220); assay: Isothermal titration calorimetry; type: binding
T2 construct: made in house
T2 sequence (P16220 whole entry): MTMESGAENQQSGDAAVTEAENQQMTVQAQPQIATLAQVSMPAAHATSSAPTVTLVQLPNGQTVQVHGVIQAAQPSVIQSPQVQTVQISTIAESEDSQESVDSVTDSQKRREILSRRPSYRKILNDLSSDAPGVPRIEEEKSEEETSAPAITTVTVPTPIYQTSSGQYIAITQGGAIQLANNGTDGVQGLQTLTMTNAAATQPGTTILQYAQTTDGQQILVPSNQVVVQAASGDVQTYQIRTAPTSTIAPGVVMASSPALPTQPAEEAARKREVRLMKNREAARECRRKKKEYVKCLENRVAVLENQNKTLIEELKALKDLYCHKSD
Method: Isothermal titration calorimetry was performed using a MicroCal iTC200 calorimeter (Freiburg, Germany). The purified HIS-CREB protein and APC were diluted in buffer (PBS with 500 mM NaCl and 10% glycine, pH 8.0). APC solution was titrated by injection of HIS-CREB. The originally released heat from molecules binding was recorded and analyzed by Origin9 software (Origin Lab) supplied with the instrument.

T1 sequence (P16220 whole entry, the tested form may be a part): as the sequence (P16220 whole entry) above

In the case of CCOC(=O)/C=C/c1ccc(O)cc1 [P4, (E)-p-hydroxycinnamic acid ethyl ester], the “reporter activity of CREB–CRTC2 two-hybrid assay” value (CREB-CRTC2 interaction) was “nor decreased CREB/CRTC2 interaction” and the “direct binding with HIS-CREB proteins (ITC)” value (HIS-CREB protein) was “neither directly bound with HIS-CREB proteins”.
